The values below are quoted from earlier work in patent publication US11857677B2, “Ready to use injectable formulations of melphalan and processes for preparation thereof” (RK Pharma Solutions LLC, priority 2019, dated 2024).

For the molecule `N[C@@H](Cc1ccc(N(CCCl)CCCl)cc1)C(=O)O` [Melphalan, 4-[bis(2-chloroethyl)amino]-L-phenylalanine], the Solubility in water entry was “practically insoluble”.
